Reference: US11401255B2, “Small molecule activators of Parkin enzyme function” (Mayo Foundation for Medical Education and Research, priority 2016, dated 2022)

Tests used:
Parkin [1] = molecular target: T1, Parkin (Homo sapiens (Human), UniProt O60260); test: Thermal shift (protein melting) assay; format: binding; details: 500 nM compound, 50 ng purified Parkin, SYPRO orange
Method: FIGS. 15A-15H show Parkin activation in primary fibroblasts, neuronal cells and in vitro. Positive control (PC) cells were treated with DMSO and 10 μM of CCCP. Negative control (NC) cells were treated with 3.5 μM CCCP, some cells were left untreated (−). […] Vinculin was used as loading control. […] FIG. 15C: Human fibroblasts were directly converted to neurons and treated as in FIG. 15B. […] Beta III tubulin confirmed successful conversion of fibroblasts to iNeurons. FIG. 15D: Rat PC12 cells were treated as in FIG. 15A. Western blots show enhanced ubiquitylation of MFN2 and TOM70, and robust pSer65-Ub induction similar to PC, but not NC cells. FIG. 15E: In vitro E2 discharge assay. Recombinant Parkin was pre-incubated with compound 4 or DMSO as control and was mixed to Ub-loaded UbcH7. […] Control reactions were performed without PINK1 or Parkin. FIG. 15F: In vitro assay with isolated mitochondria from untreated or CCCP-treated HeLa cells lacking Parkin. […]
To validate direct binding of activating compounds to Parkin as predicted from the in silico approach, a thermofluor shift assay was used. Recombinant purified Parkin was mixed together with compound 4 or DMSO as a control and the melting temperature was monitored using SYPRO Orange dye.
The thermal shift assay was performed as follows. […] Data was exported and analyzed using the Protein Melting Analysis tool (Roche Applied Science).

Parkin [2] = molecular target: T1, Parkin; test: In vitro E2 discharge assay; format: biochemical; details: Ub-loaded UbcH7, presence of PINK1, vs DMSO
Method: (§1) FIGS. 15A-15H show Parkin activation in primary fibroblasts, neuronal cells and in vitro. Positive control (PC) cells were treated with DMSO and 10 μM of CCCP. Negative control (NC) cells were treated with 3.5 μM CCCP, some cells were left untreated (−). […] Vinculin was used as loading control. […] FIG. 15C: Human fibroblasts were directly converted to neurons and treated as in FIG. 15B. […] Beta III tubulin confirmed successful conversion of fibroblasts to iNeurons. FIG. 15D: Rat PC12 cells were treated as in FIG. 15A. Western blots show enhanced ubiquitylation of MFN2 and TOM70, and robust pSer65-Ub induction similar to PC, but not NC cells. FIG. 15E: In vitro E2 discharge assay. Recombinant Parkin was pre-incubated with compound 4 or DMSO as control and was mixed to Ub-loaded UbcH7. […] Control reactions were performed without PINK1 or Parkin. FIG. 15F: In vitro assay with isolated mitochondria from untreated or CCCP-treated HeLa cells lacking Parkin. Mitochondrial preparations were mixed with recombinant Parkin, E1, UbcH7, ATP and either compound 4 or DMSO as a control and incubated for the indicated times. […] Control samples were incubated in reaction mix without Parkin. […]
As the first readout for Parkin activity, E2 Ub discharge assays were performed, complementary to the Ub-charging assays of Parkin C431S in cells. […]

Parkin [3] = molecular target: T1, Parkin; test: In vitro ubiquitylation assay with isolated mitochondria; format: biochemical; details: mitochondria from CCCP-treated HeLa cells lacking Parkin, vs DMSO
Method: as §1
The in vitro assays with mitochondrial preparations were performed as follows. […] The mitochondrial pellet was resuspended in solution B and the protein concentration determined by BCA. […]

T1 sequence (O60260 whole entry): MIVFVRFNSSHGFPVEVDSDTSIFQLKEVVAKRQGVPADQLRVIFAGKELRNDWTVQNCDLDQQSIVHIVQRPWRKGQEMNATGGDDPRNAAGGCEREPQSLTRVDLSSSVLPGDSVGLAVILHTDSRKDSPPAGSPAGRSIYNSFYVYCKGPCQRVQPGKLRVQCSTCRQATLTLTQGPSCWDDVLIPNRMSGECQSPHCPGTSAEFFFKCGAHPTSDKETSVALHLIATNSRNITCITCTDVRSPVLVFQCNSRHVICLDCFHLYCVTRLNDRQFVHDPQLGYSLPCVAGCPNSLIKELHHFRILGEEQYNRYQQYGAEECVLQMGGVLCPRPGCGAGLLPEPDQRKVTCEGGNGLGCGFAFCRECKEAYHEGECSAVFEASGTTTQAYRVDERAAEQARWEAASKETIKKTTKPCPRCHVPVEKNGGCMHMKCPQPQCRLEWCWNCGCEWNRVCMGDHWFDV

O=C(Cn1ccnc1-c1ccccn1)Nc1ccc(-c2ccccc2)cc1 [Compound 4]
Parkin melting temperature shift (Parkin [1]): 3 °C
E2 discharge (Parkin [2]): slightly more E2 discharge
MFN1 ubiquitylation (Parkin [3]): increased ubiquitylation
